# Reference: patent US8012967B2, “Minor groove binders” (University of Strathclyde, priority 2006, dated 2011)
# Read-outs that look alike come from different tables or passages of the source.
# Key:
# Type in all cases: cell-based
# [1] = tested on: Aspergillus niger (IMI 1745); assay: MIC, Aspergillus niger; details: for MIC: read-out: Minimum inhibitory concentrations (MICs), A. niger
# Protocol: (§1) The effects of compounds of the invention in relation to inhibiting the growth of various microorganisms was determined using methods known to those skilled in the art, for example in vitro methods as described in J. Med. Chem. 47, 2133-2156 (2004) and in vivo methods as described in J. Med. Microbiol. 46, 208-213 (1997), the disclosures of which documents are hereby incorporated by reference. In particular, minimum inhibitory concentrations (MICs) against microorganisms (e.g. S. Aureus, Streptococcus faecalis, Aspergillus niger, Candida albicans or Mycobacterium fortuitum) for compounds of the invention may be measured using procedures such as those described in A. J. Drummond and […] development of microbiological methods for phytochemical screening” Recent Res. Devel. […] The test wells on each 96 well microtitre plate were initially inoculated with culture medium (100 μL) using Mueller-Hinton Broth for antibacterial assays and Sabouraud Broth for antifungal assays. A solution of each test sample (100 μL) was added to one row of each plate and a series of doubling dilutions made for successive rows. Incubation was at 37° C. for antibacterial assay and 25° C. for antifungal assay. […] From the observed pattern of colour, the MIC was determined. All tests included sterility and growth controls.
# [2] = tested on: Candida albicans (NCPF3179); assay: MIC, Candida albicans; details: for MIC: read-out: Minimum inhibitory concentrations (MICs), C. albicans
# Protocol: as §1
# [3] = tested on: Staphylococcus aureus Strain 2 (NCTC 6571); assay: MIC, Staphylococcus aureus Strain 2; details: for MIC: read-out: Minimum inhibitory concentrations (MICs), S. aureus 2
# Protocol: as §1
# [4] = tested on: Staphylococcus aureus Strain 1 (BSAC04(1)) (Clinical isolate from Glasgow Royal Infirmary); assay: MIC, Staphylococcus aureus Strain 1; details: Staphylococcus aureus, read-out: Minimum inhibitory concentrations (MICs), S aureus 1
# Protocol: The effects of compounds of the invention in relation to inhibiting the growth of various microorganisms was determined using methods known to those skilled in the art, for example in vitro methods as described in J. Med. Chem. 47, 2133-2156 (2004) and in vivo methods as described in J. Med. Microbiol. 46, 208-213 (1997), the disclosures of which documents are hereby incorporated by reference.
# In particular, minimum inhibitory concentrations (MICs) against microorganisms (e.g. S. Aureus, Streptococcus faecalis, Aspergillus niger, Candida albicans or Mycobacterium fortuitum) for compounds of the invention may be measured using procedures such as those described in A. J. Drummond and R. D. Waigh “The development of microbiological methods for phytochemical screening” Recent Res. Devel. Phytochem. 4, 143-152 (2000), the disclosures of which document are hereby incorporated by reference.
# Sample dilutions were typically prepared by dissolving the test sample (2 mg) in sterile water (10 mL) to provide a working concentration of 200 μg/ml. The test wells on each 96 well microtitre plate were initially inoculated with culture medium (100 μL) using Mueller-Hinton Broth for antibacterial assays and Sabouraud Broth for antifungal assays. A solution of each test sample (100 μL) was added to one row of each plate and a series of doubling dilutions made for successive rows. Incubation was at 37° C. for antibacterial assay and 25° C. for antifungal assay. […] From the observed pattern of colour, the MIC was determined. All tests included sterility and growth controls.
# [5] = tested on: Streptococcus faecalis (NCTC 775); assay: MIC, Streptococcus faecalis; details: for MIC: read-out: Minimum inhibitory concentrations (MICs), St. faecalis
# Protocol: as §1
# [6] = tested on: Mycobacter fortuitum (NCTC 10394); assay: MIC, Mycobacter fortuitum; details: Mycolicibacterium fortuitum, NCTC10394, read-out: Minimum inhibitory concentrations (MICs), M. fortuitum
# Protocol: as §1
# [7] = value in parentheses, na = not active
# [8] = Aspergillus niger, value in parentheses, na = not active
# [9] = Aspergillus niger, value outside parentheses
# [10] = Enterococcus faecalis, NCTC775, value in parentheses, na = not active
# [11] = Enterococcus faecalis, NCTC775, value outside parentheses
# [12] = Candida albicans, NCPF3179, value in parentheses, na = not active
# [13] = Candida albicans, NCPF3179, value outside parentheses
# [14] = Staphylococcus aureus, NCTC6571, value in parentheses, na = not active
# [15] = Staphylococcus aureus, NCTC6571, value outside parentheses
Compound,"MIC [4, 7] [µg/mL]",MIC ([4]; value outside parentheses) [µM],"MIC [1, 8] [µg/mL]","MIC [1, 9] [µM]","MIC [5, 10] [µg/mL]","MIC [5, 11] [µM]","MIC [2, 12] [µg/mL]","MIC [2, 13] [µM]","MIC [6, 7] [µg/mL]",MIC ([6]; value outside parentheses) [µM],further results
Cn1cc(NC(=O)c2cc(NC(=O)c3ccc(/C=C/c4ccc5ccccc5n4)cc3)cn2C)cc1C(=O)NCCN1CCOCC1 [Example 15],–,–,–,–,–,–,–,–,–,–,"Minimum inhibitory concentrations (MICs), A. niger [1, 7]: 100 µg/mL; MIC ([1]; value outside parentheses): 134 µM; Minimum inhibitory concentrations (MICs), C. albicans [2, 7]: 100 µg/mL; MIC ([2]; value outside parentheses): 134 µM; Minimum inhibitory concentrations (MICs), S. aureus 2 [3, 7]: 100 µg/mL; MIC ([3]; value outside parentheses): 134 µM"
"COc1cccc(/C=C/c2ccc(C(=O)Nc3cc(C(=O)Nc4cc(C(=O)NCCCN(C)C)n(C)c4)n(C)c3)cc2)c1 [Example 4, N-[5-({[3-(Dimethylamino)propyl]amino}carbonyl)-1-methyl-1H-pyrrol-3-yl]-4-({4-[(E)-2-(3-methoxyphenyl)ethenyl]benzoyl}amino)-1-methyl-1H-pyrrole-2-carboxamide]",6.25,8.9,50,72,–,–,100,143,–,–,"MIC [3, 14]: 12.5 µg/mL; MIC [3, 15]: 17.9 µM"
"Cn1cc(NC(=O)c2cc(NC(=O)c3cc(/C=C/c4cnc5ccccc5c4)cn3C)cn2C)cc1C(=O)NCCN1CCOCC1 [Example 10, 1-Methyl-N-[1-methyl-5-({[1-methyl-5-({[2-(4-morpholinyl)ethyl]amino}-carbonyl)-1H-pyrrol-3-yl]amino}carbonyl)-1H-pyrrol-3-yl]-4-[(E)-2-(3-quinolinyl)ethenyl]-1H-pyrrole-2-carboxamide]",4,5.3,–,–,12.5,15,100,116,100,116,–
"CC(C)CCc1sc(NC(=O)c2cc(NC(=O)c3ccc(/C=C/c4cc5ccccc5nc4On4nnc5ccccc54)cc3)cn2C)nc1C(=O)NCCN1CCOCC1 [Example 18, 2-[({4-[(4-{(E)-2-[2-(1H-1,2,3-Benzotriazol-1-yloxy)-3-quinolinyl]ethenyl}-benzoyl)amino]-1-methyl-1H-pyrrol-2-yl}carbonyl)amino]-5-isopentyl-N-[2-(4-morpholinyl)ethyl]-1,3-thiazole-4-carboxamide]",–,–,–,–,–,–,100,169,100,169,–
"CC(C)CCc1sc(NC(=O)c2cc(NC(=O)c3ccc(/C=C/c4cc5ccccc5nc4Cl)cc3)cn2C)nc1C(=O)NCCN1CCOCC1 [Example 17, 2-({[4-({4-[(E)-2-(2-Chloro-3-quinolinyl)ethenyl]benzoyl}amino)-1-methyl-1H-pyrrol-2-yl]carbonyl}amino)-5-isopentyl-N-[2-(4-morpholinyl)ethyl]-1,3-thiazole-4-carboxamide]",–,–,–,–,–,–,100,117,100,117,–
"Cn1cc(NC(=O)c2cc(NC(=O)c3ccc(/C=C/c4cc5ccccc5nc4On4nnc5ccccc54)cc3)cn2C)cc1C(=O)NCCN1CCOCC1 [Example 14, 4-[(4-{(E)-2-[2-(1H-1,23-Benzotriazol-1-yloxy)-3-quinolinyl]ethenyl}benzoyl)-amino]-1-methyl-N-[1-methyl-5-({[2-(4-morpholinyl)ethyl]amino}carbonyl)-1H-pyrrol-3-yl]-1H-pyrrole-2-carboxamide]",–,–,–,–,–,–,–,–,–,–,"Minimum inhibitory concentrations (MICs), A. niger [1, 7]: 50 µg/mL; MIC ([1]; value outside parentheses): 57 µM; Minimum inhibitory concentrations (MICs), St. faecalis [5, 7]: 100 µg/mL; MIC ([5]; value outside parentheses): 114 µM; Minimum inhibitory concentrations (MICs), C. albicans [2, 7]: 100 µg/mL; MIC ([2]; value outside parentheses): 114 µM; Minimum inhibitory concentrations (MICs), S. aureus 2 [3, 7]: 50 µg/mL; MIC ([3]; value outside parentheses): 57 µM"
"CC(C)CCc1sc(NC(=O)c2cc(NC(=O)c3ccc(/C=C/c4cnc5ccccc5c4)cc3)cn2C)nc1C(=O)NCCN1CCOCC1 [Example 16, 5-Isopentyl-2-({[1-methyl-4-({4-[(E)-2-(3-quinolinyl)ethenyl]benzoyl}amino)-1H-pyrrol-2-yl]carbonyl}amino)-N-[2-(4-morpholinyl)ethyl]-1,3-thiazole-4-carboxamide]",–,–,100,122,–,–,50,61,100,122,–

# Continued, in another order:
"MIC [4, 7] [µg/mL]",MIC ([4]; value outside parentheses) [µM],"MIC [1, 8] [µg/mL]","MIC [1, 9] [µM]","MIC [5, 10] [µg/mL]","MIC [5, 11] [µM]","MIC [2, 12] [µg/mL]","MIC [2, 13] [µM]","MIC [6, 7] [µg/mL]",MIC ([6]; value outside parentheses) [µM],Compound,further results
4,5.1,100,126,100,26,100,126,–,–,"CSc1ccc(/C=C/c2ccc3cc(C(=O)Nc4cc(C(=O)Nc5cc(C(=O)NCCN6CCOCC6)n(C)c5)n(C)c4)ccc3n2)cc1 [Example 24, N-[1-Methyl-5-({[1-methyl-5-({[2-(4-morpholinyl)ethyl]amino}carbonyl)-1H-pyrrol-3-yl]amino}carbonyl)-1H-pyrrol-3-yl]-2-{(E)-2-[4-(methylsulfanyl)-phenyl]ethenyl}-6-quinolinecarboxamide]","MIC [3, 14]: 100 µg/mL; MIC [3, 15]: 126 µM"
4,5.2,50,64,25,32,100,129,100,129,"COc1ccc(/C=C/c2ccc3cc(C(=O)Nc4cc(C(=O)Nc5cc(C(=O)NCCN6CCOCC6)n(C)c5)n(C)c4)ccc3n2)cc1 [Example 23, 2-[(E)-2-(4-Methoxyphenyl)ethenyl]-N-[1-methyl-5-({[1-methyl-5-({[2-(4-morpholinyl)ethyl]amino}carbonyl)-1H-pyrrol-3-yl]amino}carbonyl)-1H-pyrrol-3-yl]-6-quinolinecarboxamide]",–
4,4.6,–,–,–,–,100,134,–,–,"Cn1cc(NC(=O)c2cc(NC(=O)c3cc(/C=C/c4ccc5ccccc5n4)cn3C)cn2C)cc1C(=O)NCCN1CCOCC1 [Example 11, 1-Methyl-N-[1-methyl-5-({[2-(4-morpholinyl)ethyl]amino}carbonyl)-1H-pyrrol-3-yl]-4-[({1-methyl-4-[(E)-2-(2-quinolinyl)ethenyl]-1H-pyrrol-2-yl}carbonyl)-amino]-1H-pyrrole-2-carboxamide]",–
4,5.7,100,143,12.5,16.4,–,–,–,–,"Cn1cccc1/C=C/c1ccc(C(=O)Nc2cc(C(=O)Nc3cc(C(=O)NCCN4CCOCC4)n(C)c3)n(C)c2)cc1 [Example 3, 1-Methyl-N-[1-methyl-5-({[2-(4-morpholinyl)ethyl]amino}carbonyl)-1H-pyrrol-3-yl]-4-({4-[(E)-2-(1-methyl-1H-pyrrol-2-yl)ethenyl]benzoyl}amino)-1H-pyrrole-2-carboxamide]","MIC [3, 14]: 16 µg/mL; MIC [3, 15]: 22.9 µM"
